Tests used:
[1] = tested on: mice; test: Serotonin-induced scratching in mice (animal model for OCD); assay type: in vivo, male Swiss-Webster mice
Description: The subjects were male Swiss-Webster mice, 4-6 weeks old, weighing 25-45 g. Mice were housed 5 per cage, given free access to standard mouse food and water except during experiments, and maintained in a temperature-controlled room (70° F.). Serotonin and all test drugs were made up with ascorbic acid to protect against oxidation. Two mice, one a control, the other experimental, were tested each time. Each mouse was separately placed into a plexiglas box.
Mice were injected subcutaneously between the shoulder blades with 0.1 ml of serotonin, 0.4 mg per ml in 0.15 M saline plus ascorbic acid, 1 mg/ml. […] The cumulative number of scratches with a hind leg was recorded at 5 minute intervals for 30 minutes. One saline injected control and one test animal were tested together in each assay.

[2] = tested on: mice; test: Appetite suppression studies in food-deprived mice; assay type: in vivo; conditions: mice food-deprived 18 hours, i.p.; for % Reduction from control (food consumption): p <0.05 versus saline control
Description: Mice were deprived of food, but not water, for 18 hours. They were then injected i.p. with test compounds dissolved in 0.9% NaCl containing 1 mg per ml ascorbic acid for protection against oxidation. Each mouse was placed in an individual cage for 30 minutes and then presented with a small petri dish containing a gel made from gelatin, powdered milk and sucrose. The dish was weighed at zero time and at 15-minute intervals for the next hour in order to quantitate food consumption. Controls were injected with saline-ascorbic acid; ±fenfluramine was used as an active control.

[3] = target: T1, human 5-HT2A receptor (Homo sapiens, UniProt P28223); test: Intracellular calcium flux assay, HEK 293 cells stably expressing 5-HT2A; assay type: cell-based; conditions: for Emax at 10 µM: HEK293, read-out: 5-HT2A functional activity (N/A class);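 on all read-outs here: fluorescent calcium dye read on FLIPR Tetra, peak signal above baseline within 60 s after compound addition, seven concentrations spanning 10 pM to 10 µM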
T1 construct: expressed in transfected cells; host or cells: HEK 293

[4] = target: T2, human 5-HT2B receptor (Homo sapiens, UniProt P41595); test: Intracellular calcium flux assay, HEK 293 cells stably expressing 5-HT2B; assay type: cell-based; conditions: HEK293; at 10,000 nM; read-out: 5-HT2B functional activity (N/A class);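 further: calcium dye fluorescence read on a FLIPR Tetra, peak signal above baseline within 60 s after compound addition, seven-point concentration series from 10 pM up to 10 µM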
T2 construct: expressed in transfected cells; host or cells: HEK 293

[5] = target: T3, 5-HT2C (Homo sapiens, UniProt P28335); test: Intracellular calcium flux assay, HEK 293 cells stably expressing 5-HT2C; assay type: cell-based; parameters: expressed in transfected cells; host or cells: HEK 293; conditions: for Emax: HEK293, read-out: 5-HT2C efficacy as percentage of the maximal 5-HT response ± SD, at least three independent experiments, entries marked a (42, 50, 51, 52) single measurements; for EC50: at least three independent experiments, entries marked a (42, 50, 51, 52) single measurements, read-out: 5-HT2C mean EC50 ± SD;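 on all read-outs here: calcium dye fluorescence read on FLIPR Tetra as peak signal above baseline within 60 s of compound addition, seven concentrations from 10 pM to 10 µM, each in triplicate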
T3 sequence (P28335 33-458): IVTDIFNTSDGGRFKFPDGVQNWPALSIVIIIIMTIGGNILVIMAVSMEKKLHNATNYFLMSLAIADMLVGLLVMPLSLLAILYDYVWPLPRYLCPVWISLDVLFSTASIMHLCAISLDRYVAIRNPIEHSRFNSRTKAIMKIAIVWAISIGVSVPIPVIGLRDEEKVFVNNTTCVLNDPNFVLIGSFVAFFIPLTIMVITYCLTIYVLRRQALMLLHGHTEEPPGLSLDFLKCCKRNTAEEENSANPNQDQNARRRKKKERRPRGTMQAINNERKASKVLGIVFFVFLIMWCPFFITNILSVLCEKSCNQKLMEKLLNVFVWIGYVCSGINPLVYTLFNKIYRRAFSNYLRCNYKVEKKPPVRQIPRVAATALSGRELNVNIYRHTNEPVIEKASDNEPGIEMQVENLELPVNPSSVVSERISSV

[6] = target: T3, 5-HT2C; conditions: cited from earlier work
[7] = i.p. 5 minutes before serotonin s.c., 3 mg/kg
[8] = i.p., 3 mg/kg, p <0.05 versus saline control (*p = 0.09)
[9] = i.p. 5 minutes before serotonin s.c., 10 mg/kg
[10] = i.p., 10 mg/kg, p <0.05 versus saline control

T2 sequence (P41595 whole entry): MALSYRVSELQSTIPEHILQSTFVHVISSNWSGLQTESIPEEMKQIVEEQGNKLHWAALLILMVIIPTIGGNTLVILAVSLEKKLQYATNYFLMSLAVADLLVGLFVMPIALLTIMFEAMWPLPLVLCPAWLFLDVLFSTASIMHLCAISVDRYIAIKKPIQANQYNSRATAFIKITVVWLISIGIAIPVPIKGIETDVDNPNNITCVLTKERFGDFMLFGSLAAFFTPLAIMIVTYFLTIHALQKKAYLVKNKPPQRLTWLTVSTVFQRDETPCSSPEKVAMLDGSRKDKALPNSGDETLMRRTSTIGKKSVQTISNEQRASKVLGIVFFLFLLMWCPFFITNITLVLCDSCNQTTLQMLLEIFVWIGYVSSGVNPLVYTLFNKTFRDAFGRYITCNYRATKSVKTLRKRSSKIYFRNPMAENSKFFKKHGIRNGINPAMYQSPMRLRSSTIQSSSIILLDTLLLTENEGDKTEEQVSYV
T1 sequence (P28223 whole entry): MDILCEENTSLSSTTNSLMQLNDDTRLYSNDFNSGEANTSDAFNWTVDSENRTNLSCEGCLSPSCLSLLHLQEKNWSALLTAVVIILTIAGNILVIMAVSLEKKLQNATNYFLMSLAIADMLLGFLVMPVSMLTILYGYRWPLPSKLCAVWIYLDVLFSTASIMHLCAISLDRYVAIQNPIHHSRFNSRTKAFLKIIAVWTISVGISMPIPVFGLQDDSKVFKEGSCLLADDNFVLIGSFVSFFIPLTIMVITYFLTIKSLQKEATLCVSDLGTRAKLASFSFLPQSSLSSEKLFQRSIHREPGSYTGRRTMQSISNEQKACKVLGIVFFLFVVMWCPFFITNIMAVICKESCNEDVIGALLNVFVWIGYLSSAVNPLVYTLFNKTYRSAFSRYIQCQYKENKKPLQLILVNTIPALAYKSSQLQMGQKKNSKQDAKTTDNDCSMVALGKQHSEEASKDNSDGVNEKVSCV

## CCNC(C)Cc1cccc(C(F)(F)F)c1 (racemic) [(±)-Fenfluramine, reference compound]
[1]; [7]
  Average Number of Scratches 30 min. after injection (±SEM): 22.8 ± 11.7
[1]; [8]
  % Reduction from control (scratches): 95%
[1]; oral gavage, 10 mg/kg
  Average Number of Scratches 30 min. after injection (±SEM): 35 ± 25.8
[1]; oral gavage, 10 mg/kg, p < 0.05
  % Reduction from control (scratches): 94%
[2]; 5 mg/kg
  Mean food consumption 60 min. after injection: g (±SEM) Compound: 0.90 (.04) g
  % Reduction from control (food consumption): 39%
[2]; 10 mg/kg
  Mean food consumption 60 min. after injection: g (±SEM) Compound: 0.41 (.11) g
  % Reduction from control (food consumption): 69%

## COc1ccc(F)c2c1c(CCN(C)C)cn2C [Compound 22, 2-(7-Fluoro-4-methoxy-1-methyl-1H-indol-3-yl)-N,N-dimethylethanamine]
[1]; [9]
  Average Number of Scratches 30 min. after injection (±SEM): 4.7 ± 4.7
[1]; [10]
  % Reduction from control (scratches): 98.5%
[1]; oral gavage, 20 mg/kg
  Average Number of Scratches 30 min. after injection (±SEM): 102 ± 50.8
[1]; oral gavage, 20 mg/kg, p < 0.05
  % Reduction from control (scratches): 83%
[3]; at 10,000 nM, EC50 not reached
  5-HT2A response as percentage of the maximal 5-HT response @ 10,000: (21 ± 6 @ 10,000) %
[3]; calcium flux, at least three independent experiments, each in triplicate, read-out: 5-HT2A mean EC50 ± SD
  EC50: > 10000 nM
[2]; 10 mg/kg
  Mean food consumption 60 min. after injection: g (±SEM) Compound: 0.15 (0.1) g
  % Reduction from control (food consumption): 77%
[4]
  Emax at 10 µM: < 10%
[5]
  Emax: 82%
  EC50: 9.4 ± 4.9 nM

## COc1c(F)ccc2c1c(CCN(C)C)cn2C.Cl [Compound 40, 2-(5-Fluoro-4-methoxy-1-methyl-1H-indol-3-yl)-N,N-dimethylethanamine hydrochloride]
other
  melting point: 183.6 to 186.8 °C
[1]; [7]
  Average Number of Scratches 30 min. after injection (±SEM): 8.2 ± 5.1
[1]; [8]
  % Reduction from control (scratches): 97* %
[3]; at 10,000 nM
  Emax at 10 µM: < 10%
[4]
  Emax at 10 µM: < 10%
[5]
  Emax: 72%
  EC50: 3.1 ± 1.2 nM

## CN(C)CCc1cn(C)c2ccc(F)c(OCc3ccccc3)c12.Cl [Compound 52, 4-Benzyloxy-3-(2-dimethylaminoethyl)-5-fluoro-1-methyl-1H-indole hydrochloride]
other
  melting point: 139 to 141 °C
[3]; at 10,000 nM
  Emax at 10 µM: < 10%
[4]
  Emax at 10 µM: < 10%
[5]
  Emax: 79%
  EC50: 44 nM

## COc1c(F)cc(F)c2c1c(CCN(C)C)cn2C.Cl [Compound 58, 2-(5,7-Difluoro-4-methoxy-1-methyl-1H-indol-3-yl)-N,N-dimethylethanamine hydrochloride]
other
  melting point: 185 to 189 °C
[3]; at 10,000 nM
  Emax at 10 µM: < 10%
[4]
  Emax at 10 µM: < 10%
[5]
  Emax: 51%
  EC50: 2.4 ± 0.44 nM

## CCOc1c(F)ccc2c1c(CCN(C)C)cn2CC.Cl [Compound 60, 2-(4-Ethoxy-1-ethyl-5-fluoro-1H-indol-3-yl)-N,N-dimethylethanamine hydrochloride]
other
  melting point: 130 to 132 °C
[3]; at 10,000 nM
  Emax at 10 µM: < 10%
[4]
  Emax at 10 µM: < 10%
[5]
  Emax: 69%
  EC50: 4.2 ± 0.94 nM

## CCCn1cc(CCN(C)C)c2c(OCC)c(F)ccc21.Cl [Compound 61, 2-(4-Ethoxy-5-fluoro-1-propyl-1H-indol-3-yl)-N,N-dimethylethanamine hydrochloride]
other
  melting point: 141 to 143 °C
[3]; at 10,000 nM
  Emax at 10 µM: < 10%
[4]
  Emax at 10 µM: < 10%
[5]
  Emax: 38%
  EC50: 13 ± 1.51 nM

## CN(C)CCc1cn(C)c2c(F)ccc(F)c12.Cl [Compound 65, 2-(4,7-Difluoro-1-methyl-1H-indol-3-yl)-N,N-dimethylethanamine hydrochloride]
other
  melting point: 209 to 210 °C
[3]; at 10,000 nM
  Emax at 10 µM: < 10%
[4]
  Emax at 10 µM: < 10%
[5]
  Emax: 41%
  EC50: 16 ± 3.46 nM

## COc1ccc(Br)c2c1c(CCN(C)C)cn2C.Cl [Compound 73, 2-(7-Bromo-4-methoxy-1-methyl-1H-indol-3-yl)-N,N-dimethylethanamine hydrochloride]
other
  melting point: 235 to 236 °C
[3]; at 10,000 nM
  Emax at 10 µM: < 10%
[4]
  Emax at 10 µM: < 10%
[5]
  Emax: 48%
  EC50: 274 ± 57.7 nM

## CN(C)CCc1cn(C)c2cc(O)c(F)cc12 [Compound 82, 3-[2-(Dimethylamino-ethyl)]-5-fluoro-1-methyl-1H-indol-6-ol]
other
  melting point: 165 to 169 °C
[3]; at 10,000 nM
  Emax at 10 µM: < 10%
[4]
  Emax at 10 µM: < 10%
[5]
  Emax: 83%
  EC50: 589 ± 546 nM

## CCCn1cc(CCN(C)C)c2cc(F)c(O)cc21 [Compound 84, 3-[2-(Dimethylamino-ethyl)]-5-fluoro-1-propyl-1H-indol-6-ol]
other
  melting point: 157 to 159 °C
[3]; at 10,000 nM
  Emax at 10 µM: < 10%
[4]
  Emax at 10 µM: < 10%
[5]
  Emax: 70%
  EC50: 507 ± 314 nM

## CNCCC(Oc1ccc(C(F)(F)F)cc1)c1ccccc1 (stereo not shown) [Fluoxetine, reference compound]
[1]; [9]
  Average Number of Scratches 30 min. after injection (±SEM): 154.8 ± 105.2
[1]; [10]
  % Reduction from control (scratches): 63.5%

## C[C@H](N)Cn1ccc2cc(F)c(Cl)cc21 [Ro 60-0175]
[6]; 5-HT2C versus 5-HT2A
  times more active at 5-HT2C as compared to 5-HT2A: 25 times
[6]; 5-HT2C versus 5-HT2B
  selectivity over 5-HT2B receptors: not selective

From patent US20090318527A1, “INDOLE COMPOUNDS AND METHODS OF USE THEREOF” (priority 2008, published 2009)
